Test results taken from US20220296565A1, “Pharmaceutical compositions of Ovatodiolide and the use thereof” (priority 2019, published 2022).

Assays:
[1] = system: SiHa HPV 16 positive cervical cancer cells; assay: MTT assay, SiHa cells; assay type: cell-based, human; settings: 72 h
Description: (§1) SiHa and HeLa cervical cancer cells and Human Dermal Fibroblasts (HDF) were cultured in DMEM (Sigma-Aldrich, St Louis, Mo., USA). The medium was supplemented with 10% fetal calf serum (BioClear, Wiltshire, UK), 2 mM L-glutamin, 100 U/ml penicillin, 100 μg/ml streptomycin (Sigma-Aldrich).
(§2) The MTT assay is a colorimetric assay widely used to study cell viability. It is based on the ability of NAD(P)H-dependent cellular oxidoreductase enzymes to reduce the MTT tetrazolium dye. The cells were treated with 0, 5, 10, 20 & 40 μM of OVT & AA for 72 h and then MTT was added and cytotoxicity was analyzed by a plate reader.
(§3) HPV-positive cervical cancer cells, SiHa, Hela cells, patient-derived HPV positive head and neck cancer cells and non-cancer human fibroblasts were treated with OVT at the dose range of 0, 5, 10, 20 and 40 μM and subjected to MTT assay and IC50 values were determined.

[2] = system: HeLa HPV 18 positive cervical cancer cells; assay: MTT assay, HeLa cells; assay type: cell-based, human; settings: 72 h
Description: as §1, §2, §3

[3] = system: UT-SCC 60A patient derived HPV positive Head and Neck cancer cells; assay: MTT assay, UT-SCC 60A; assay type: cell-based, human; settings: 72 h
Description: as §2, §3

[4] = system: UT-SCC 60B patient derived HPV positive Head and Neck cancer cells; assay: MTT assay, UT-SCC 60B; assay type: cell-based, human; settings: 72 h
Description: as §2, §3

[5] = system: UT-SCC 65 patient derived HPV positive Head and Neck cancer cells; assay: MTT assay, UT-SCC 65; assay type: cell-based, human; settings: UT-SCC 65, 72 h
Description: as §2, §3

[6] = system: UT-SCC 69 patient derived HPV positive Head and Neck cancer cells; assay: MTT assay, UT-SCC 69; assay type: cell-based, human; settings: UT-SCC 69, 72 h
Description: as §2, §3

[7] = system: UT-SCC 102 patient derived HPV positive Head and Neck cancer cells; assay: MTT assay, UT-SCC 102; assay type: cell-based, human; settings: UT-SCC 102, 72 h
Description: as §2, §3

[8] = system: non-cancer human fibroblast cells; assay: MTT assay, non-cancer human fibroblasts; assay type: cell-based; settings: 72 h
Description: as §2, §3

SiHa cells [9] = assay: Activated caspase-3 by flow cytometry; assay type: cell-based, human
Description: SiHa cells were treated with 0, 20 & 40 μM AA or OVT or solvent control for 24 & 48 h. Activated caspase-3 in cells was labeled with phyco-erythrin-conjugated antibody according to manufacturer's protocol (PE Active Caspase-3 Apoptosis Kit; BD Pharmingen, San Diego, Calif.) and analyzed by FACSCalibur flow cytometer (FL-2, FSC, BD Pharmingen).
We then incubated the cells with 0, 20 & 40 μM AA & OVT 24 and 48 hours, and determined the percentage of cells that contained activated caspase-3 as a measure of apoptosis.

[10] = system: K87 primary skin fibroblast cells; assay: MTT assay, K87 fibroblasts; assay type: cell-based, human; settings: 72 h
Description: as §2, §3

[11] = system: K74 primary skin fibroblast cells; assay: MTT assay, K74 fibroblasts; assay type: cell-based, human; settings: 72 h
Description: as §2, §3

SiHa cells [12] = assay: Phase contrast microscopy of SiHa cells; assay type: cell-based, human; settings: 40 μM
Text: In order to examine the mechanism underlying the previously reported cytotoxicity of OVT, we investigated if OVT would induce apoptotic death of cultured SiHa cervical cancer cells.

SiHa cells [13] = assay: Cell-IQ high content imaging, proliferation of SiHa; assay type: cell-based, human; settings: various doses, till 72 h
Description: (§4) SiHa cells—HPV 16 positive cervical cancer cell line; HeLa—HPV 18 positive cervical cancer cell line. […] Numbers 1-6 on the x-axis indicate 12 h intervals. The area of the plate that cells cover is indicated on the y-axis (arbitrary number of units).
(§5) The Cell-IQ Real-time imaging provides information on how the compounds are affecting cell morphology and cell proliferation at various doses up to 72 h. A rigorous image analysis protocol was developed to assess the effects of the compounds on cell proliferation.
(§6) The cells were imaged by high content imaging in Cell-IQ and the proliferation of the cells was observed till 72 h.

HeLa cells = assay: Cell-IQ high content imaging, proliferation of HeLa; assay type: cell-based, human; settings: various doses, till 72 h
Description: as §4, §5, §6

SiHa cells [14] = assay: Western blotting of SiHa cell lysates; assay type: cell-based, human
Description: Whole cell lysates were prepared by lysing the cells in Laemmli sample buffer (Laemmli, 1970) and boiling the samples for 10 min after which proteins were separated in 12.5-15% SDS-PAGE. Western blotting was performed using antibodies against caspase 3 (Cell Signaling), HPV16 E6, E7 (Santa Cruz Biotechnology, Inc, Santa Cruz, Calif.), and […] (clone AC-40; Sigma-Aldrich). Horseradish peroxidase-conjugated secondary antibodies were obtained from Southern Biotechnology Associates (Birmingham, Ala.), Promega (Madison, Wis.) and Amersham Biosciences (Freiburg, Germany). The results were visualized using the ECL method (Amersham Biosciences) on X-ray film. The presented Western blot results are representative of at least three independent experiments. SiHa cervical cancer cells have been transformed by high-risk human papillomavirus (HPV). As E6 and E7 play such critical roles in SiHa cell transformation, the expression of these viral proteins was examined.

C=C1C(=O)OC2/C=C(/C)CC/C=C(\C(=O)O)CC/C=C(\C)CCC12 (stereo not drawn) [Anisomelic acid (AA), Anisomelic acid, reference compound]
IC50 [1]: 32.1 µM | IC50 [2]: 33.2 µM | IC50 [3]: 18 µM | IC50 [4]: 22.8 µM | IC50 [5]: 42.8 µM | IC50 [6]: 23.9 µM | IC50 [7]: 28.2 µM | toxicity to non-cancer human fibroblast cells [8]: not toxic at all | activation of caspase-3 (SiHa cells [9]; 40 μM, after 48 h): marked activation

Ovatodiolide
IC50 [1]: 10.7 µM | IC50 [2]: 10.7 µM | IC50 [3]: 5.53 µM | IC50 [4]: 3.33 µM | IC50 [5]: 14.1 µM | IC50 [6]: 0.859 µM | IC50 [7]: 7.73 µM | IC50 [10]: 19.7 µM | IC50 [11]: 13.2 µM | cell death in SiHa cells (SiHa cells [12]): induced cell death | effect on cell morphology (SiHa cells [12]; 72 hours, SiHa): clear effect on cell morphology | cell proliferation (SiHa cells [13]): inhibited the cell proliferation | cell proliferation (HeLa cells): inhibited the cell proliferation | activation of caspase-3 (SiHa cells [9]; 20 μM, after 24 h, compared with 40 μM AA after 48 h): higher activation | activation of caspase-3 compared to AA at the same concentration (SiHa cells [9]; 40 μM, after 48 h): almost doubled | cleavage of caspase-3 (SiHa cells [14]; 20-40 μM): induced the cleavage | HPV E6 and E7 viral proteins (SiHa cells [14]; Western blot): downregulation | cIAP2 protein level (SiHa cells [14]; Western blot): downregulation
